Laboratory results reported in patent US20230051589A1, “COMPOUNDS AND COMPOSITIONS FOR TREATING CONDITIONS ASSOCIATED WITH NLRP ACTIVITY” (Novartis AG, priority 2018, published 2023).

Each molecule was assayed on IL-1β production in PMA-differentiated THP-1 cells (assay: IL-1β production in PMA-differentiated THP-1 cells stimulated with gramicidin (hTHP-1 assay, 2% fetal bovine serum; Procedures 1-3)). Settings: Homo sapiens, THP-1, Table B3; hTHP-1 assay containing 2% fetal bovine serum, gramicidin stimulation, IL-1β readout; read-out: hTHP-1 IC50.
Type: cell-based, human
In short: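 IL-1β released into supernatants was read by HTRF after 2 h gramicidin (5 μM) challenge. Before challenge, compounds (3-fold dilutions, top 100 μM, 0.37% DMSO) were given 1 h on THP-1 cells differentiated with PMA (20 ng/ml, 16-18 h) and held in 2% FBS medium.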

| IC50 | Structure (SMILES) |
| --- | --- |
| > 30000 nM | NS(=O)(=NC(=O)Nc1c2c(cc3c1CCC3)CCC2)c1ccc(-c2ccccc2)s1 (single isomer, unassigned) [Example 799, (R) or (S)-N′-((1,2,3,5,6,7-hexahydro-s-indacen-4-yl)carbamoyl)-5-phenylthiophene-2-sulfonimidamide] |

Same assay, conditions: Table B3; hTHP-1 assay containing 2% fetal bovine serum, gramicidin stimulation, IL-1β readout; read-out: hTHP-1 IC50

| Structure (SMILES) | IC50 |
| --- | --- |
| CNS(=O)(=O)c1cccc(S(N)(=O)=NC(=O)Nc2c3c(cc4c2CCC4)CCC3)c1 (single isomer, unassigned) [Example 791, (R) or (S)-3-(N′-((1,2,3,5,6,7-hexahydro-5-indacen-4-yl)carbamoyl)sulfamidimidoyl)-N-methylbenzenesulfonamide] | 200 to 1000 nM |
| CNS(=O)(=O)c1cccc(S(N)(=O)=NC(=O)Nc2c3c(cc4c2CCC4)CCC3)c1 (single isomer, unassigned) [Example 792, (S) or (R)-3-(N′-((1,2,3,5,6,7-hexahydro-s-indacen-4-yl)carbamoyl)sulfamidimidoyl)-N-methylbenzenesulfonamide] | 1000 to 5000 nM |
| COCCOC[C@@](C)(O)c1ncc(S(N)(=O)=NC(=O)Nc2c3c(cc4c2CCC4)CCC3)s1 (single isomer, unassigned) [Example 793, (S) or (R)-N′-((1,2,3,5,6,7-hexahydro-s-indacen-4-yl)carbamoyl)-2-((R)-2-hydroxy-1-(2-methoxyethoxy)propan-2-yl)thiazole-5-sulfonimidamide] | 1000 to 5000 nM |
| COCCOC[C@@](C)(O)c1ncc(S(N)(=O)=NC(=O)Nc2c3c(cc4c2CCC4)CCC3)s1 (single isomer, unassigned) [Example 794, (R) or (S)-N′-((1,2,3,5,6,7-hexahydro-s-indacen-4-yl)carbamoyl)-2-((R)-2-hydroxy-1-(2-methoxyethoxy)propan-2-yl)thiazole-5-sulfonimidamide] | 8 to 40 nM |
| CN(Cc1ccc(S(N)(=O)=NC(=O)Nc2c3c(cc4c2CC4)CCC3)c(F)c1)C1CCC1 (single isomer, unassigned) [Example 797, (R) or (S)-4-((cyclobutyl(methyl)amino)methyl)-2-fluoro-N′-((2,4,5,6-tetrahydro-1H-cyclobuta[f]inden-3-yl)carbamoyl)benzenesulfonimidamide] | 200 to 1000 nM |
| CN(Cc1ccc(S(N)(=O)=NC(=O)Nc2c3c(cc4c2CC4)CCC3)c(F)c1)C1CCC1 (single isomer, unassigned) [Example 798, (S) or (R)-4-((cyclobutyl(methyl)amino)methyl)-2-fluoro-N′-((2,4,5,6-tetrahydro-1H-cyclobuta[f]inden-3-yl)carbamoyl)benzenesulfonimidamide] | > 30000 nM |
| CC(C)(O)c1sc(S(N)(=O)=NC(=O)Nc2c3c(cc4c2CCC4)CCC3)cc1-c1ccccc1 (single isomer, unassigned) [Example 801, (S) or (R)-N′-((1,2,3,5,6,7-hexahydro-s-indacen-4-yl)carbamoyl)-5-(2-hydroxypropan-2-yl)-4-phenylthiophene-2-sulfonimidamide] | 5000 to 30000 nM |
| CC(C)(O)c1sc(S(N)(=O)=NC(=O)Nc2c3c(cc4c2CCC4)CCC3)cc1-c1ccccc1 (single isomer, unassigned) [Example 802, (R) or (S)-N′-((1,2,3,5,6,7-hexahydro-s-indacen-4-yl)carbamoyl)-5-(2-hydroxypropan-2-yl)-4-phenylthiophene-2-sulfonimidamide] | 40 to 200 nM |
| CC(C)n1nc(S(N)(=O)=NC(=O)Nc2c3c(cc4c2C(=O)CC4)CCC3)cc1C(C)(C)O (single isomer, unassigned) [Example 805, (R) or (S)-5-(2-hydroxypropan-2-yl)-1-isopropyl-N′-((3-oxo-1,2,3,5,6,7-hexahydro-s-indacen-4-yl)carbamoyl)-1H-pyrazole-3-sulfonimidamide] | 200 to 1000 nM |
| CC(C)n1nc(S(N)(=O)=NC(=O)Nc2c3c(cc4c2C(=O)CC4)CCC3)cc1C(C)(C)O (single isomer, unassigned) [Example 806, (S) or (R)-5-(2-hydroxypropan-2-yl)-1-isopropyl-N′-((3-oxo-1,2,3,5,6,7-hexahydro-5-indacen-4-yl)carbamoyl)-1H-pyrazole-3-sulfonimidamide] | > 30000 nM |
| CC(C)(O)c1nc(CO)c(S(N)(=O)=NC(=O)Nc2c3c(cc4c2C(=O)CC4)CCC3)s1 (single isomer, unassigned) [Example 807, (S) or (R)-4-(hydroxymethyl)-2-(2-hydroxypropan-2-yl)-N′-((3-oxo-1,2,3,5,6,7-hexahydro-s-indacen-4-yl)carbamoyl)thiazole-5-sulfonimidamide] | 5000 to 30000 nM |
| CC(C)(O)c1nc(CO)c(S(N)(=O)=NC(=O)Nc2c3c(cc4c2C(=O)CC4)CCC3)s1 (single isomer, unassigned) [Example 808, (R) or (S)-4-(hydroxymethyl)-2-(2-hydroxypropan-2-yl)-N′-((3-oxo-1,2,3,5,6,7-hexahydro-s-indacen-4-yl)carbamoyl)thiazole-5-sulfonimidamide] | 1000 to 5000 nM |
| CN(C)CC(C)(C)c1ccc(S(N)(=O)=NC(=O)Nc2c3c(cc4c2CCC4)CCC3)cc1 (single isomer, unassigned) [Example 809, (R) or (S)-4-(1-(dimethylamino)-2-methylpropan-2-yl)-N′-((1,2,3,5,6,7-hexahydro-s-indacen-4-yl)carbamoyl)benzenesulfonimidamide] | 200 to 1000 nM |
| CN(C)CC(C)(C)c1ccc(S(N)(=O)=NC(=O)Nc2c3c(cc4c2CCC4)CCC3)cc1 (single isomer, unassigned) [Example 810, (S) or (R)-4-(1-(dimethylamino)-2-methylpropan-2-yl)-N′-((1,2,3,5,6,7-hcxahydro-s-indaccn-4-yl)carbamoyl)benzenesulfonimidamide] | 5000 to 30000 nM |
| CC(C)c1cnc(S(N)(=O)=NC(=O)Nc2c3c(cc4c2CCC4)CCC3)c(F)c1 (single isomer, unassigned) [Example 811, (R) or (S)-3-fluoro-N′-((1,2,3,5,6,7-hexahydro-s-indacen-4-yl)carbamoyl)-5-isopropylpyridine-2-sulfonimidamide] | 200 to 1000 nM |
| CC(C)c1cnc(S(N)(=O)=NC(=O)Nc2c3c(cc4c2CCC4)CCC3)c(F)c1 (single isomer, unassigned) [Example 812, (S) or (R)-3-fluoro-N′-((1,2,3,5,6,7-hexahydro-s-indacen-4-yl)carbamoyl)-5-isopropylpyridine-2-sulfonimidamide] | 5000 to 30000 nM |
| CCn1ccc(S(N)(=O)=NC(=O)Nc2c3c(cc4c2CCC4)CCC3)n1 (single isomer, unassigned) [Example 813, (R) or (S)-1-ethyl-N′-((1,2,3,5,6,7-hexahydro-s-indacen-4-yl)carbamoyl)-1H-pyrazole-3-sulfonimidamide] | 40 to 200 nM |
| CCn1ccc(S(N)(=O)=NC(=O)Nc2c3c(cc4c2CCC4)CCC3)n1 (single isomer, unassigned) [Example 814, (S) or (R)-1-ethyl-N′-((1,2,3,5,6,7-hexahydro-s-indacen-4-yl)carbamoyl)-1H-pyrazole-3-sulfonimidamide] | 1000 to 5000 nM |

Second part, the molecule after the results:

| IC50 | Structure (SMILES) |
| --- | --- |
| 200 to 1000 nM | NS(=O)(=NC(=O)Nc1c2c(cc3c1CCC3)CCC2)c1cc2c(s1)CCNC2 (single isomer, unassigned) [Example 788, (S) or (R)-N′-((1,2,3,5,6,7-hexahydro-5-indacen-4-yl)carbamoyl)-4,5,6,7-tetrahydrothieno[3,2-c]pyridine-2-sulfonimidamide] |
| 200 to 1000 nM | NS(=O)(=NC(=O)Nc1c2c(cc3c1CCC3)CCC2)c1cc2c(s1)CCOC2 (single isomer, unassigned) [Example 789, (R) or (S)-N′-((1,2,3,5,6,7-hexahydro-5-indacen-4-yl)carbamoyl)-6,7-dihydro-4H-thieno[3,2-c]pyran-2-sulfonimidamide] |
| 5000 to 30000 nM | NS(=O)(=NC(=O)Nc1c2c(cc3c1CCC3)CCC2)c1cc2c(s1)CCOC2 (single isomer, unassigned) [Example 790, (S) or (R)-N′-((1,2,3,5,6,7-hexahydro-s-indacen-4-yl)carbamoyl)-6,7-dihydro-4H-thieno[3,2-c]pyran-2-sulfonimidamide] |
| 200 to 1000 nM | NS(=O)(=NC(=O)Nc1c2c(cc3c1CCC3)CCC2)c1sc(CNC2CCC2)cc1F (single isomer, unassigned) [Example 795, (R) or (S)-5-((cyclobutylamino)methyl)-3-fluoro-N′-((1,2,3,5,6,7-hexahydro-s-indacen-4-yl)carbamoyl)thiophene-2-sulfonimidamide] |
| 5000 to 30000 nM | NS(=O)(=NC(=O)Nc1c2c(cc3c1CCC3)CCC2)c1sc(CNC2CCC2)cc1F (single isomer, unassigned) [Example 796, (S) or (R)-5-((cyclobutylamino)methyl)-3-fluoro-N′-((1,2,3,5,6,7-hexahydro-s-indacen-4-yl)carbamoyl)thiophene-2-sulfonimidamide] |
| > 30000 nM | NS(=O)(=NC(=O)Nc1c2c(cc3c1CCC3)CCC2)c1ccc(-c2ccccc2)s1 (single isomer, unassigned) [Example 800, (S) or (R)-N′-((1,2,3,5,6,7-hexahydro-s-indacen-4-yl)carbamoyl)-5-phenylthiophene-2-sulfonimidamide] |
| 200 to 1000 nM | CN(C)Cc1ccc(S(N)(=O)=NC(=O)Nc2c3c(cc4c2CCC4)CCC3)s1 (single isomer, unassigned) [Example 803, (R) or (S)-5-((dimethylamino)methyl)-N′-((1,2,3,5,6,7-hexahydro-5-indacen-4-yl)carbamoyl)thiophene-2-sulfonimidamide] |
| 5000 to 30000 nM | CN(C)Cc1ccc(S(N)(=O)=NC(=O)Nc2c3c(cc4c2CCC4)CCC3)s1 (single isomer, unassigned) [Example 804, (S) or (R)-5-((dimethvlamino)methyl)-N′-((1,2,3,5,6,7-hexahydro-s-indacen-4-yl)carbamoyl)thiophene-2-sulfonimidamide] |
